Values after ≈ are worked out from the molar mass of the structure shown.
system: SAUR 9218; assay: MIC Test Method, standard agar dilution; format: cell-based; settings: agar dilution, Mueller Hinton agar, incubated overnight at 35° C.; lowest concentration that inhibits visible growth; read-out: SAUR 9218 MIC
Protocol: The in vitro MiCs of test compounds were determined by a standard agar dilution method. A stock drug solution of each analog was prepared in the preferred solvent, usually DMSO:H2O (1:3). Serial 2-fold dilutions of each sample are made using 1.0 ml aliquots of sterile distil]ed water. To each 1.0 ml aliquot of drug was added 9 ml of molten Mueller Hinton agar medium. The drug-supplemented agar was mixed, poured into 15×100 mm petri dishes, and allowed to solidify and dry prior to inoculation.
Vials of each of the test organisms are maintained frozen in the vapor phase of a liquid nitrogen freezer. Test cultures are grown overnight at 35° C. on the medium appropriate for the organism. Colonies are harvested with a sterile swab, and cell suspensions are prepared in Trypticase Soy broth (TSB) to equal the turbidity of a 0.5 McFamland standard. A 1:20 dilution of each suspension was made in TSB. The plates containing the drug supplemented agar are inoculated with a 0.001 ml drop of the cell suspension using a Steers replicator, yielding approximately 10^4 to 10^5 cells per spot. The plates are incubated overnight at 35° C.
Following incubation the Minimum Inhibitory Concentration (MIC μg/ml), the lowest concentration of drug that inhibits visible growth of the organism, was read and recorded.

Row | SMILES | MIC
1 | Cc1sc(C(=O)Nc2ccc(C#N)cc2C(=O)O)cc1S(=O)(=O)Nc1ccc2c(c1)CCC2 | 32 µg/mL (≈ 66.5 µM)
2 | CCN(CC)S(=O)(=O)c1ccc2onc(C(=O)Nc3ccc(C#N)cc3C(=O)O)c2c1 | 0.125 µg/mL (≈ 0.283 µM)
3 | Cc1oc(C(=O)Nc2ccc(C#N)cc2C(=O)O)cc1S(=O)(=O)N1CCCC1CO (centres unmarked) | 8 µg/mL (≈ 18.5 µM)
4 | CS(=O)(=O)c1ncc(N2CCOCC2)c(C(=O)Nc2ccc(Br)cc2C(=O)O)n1 | > 128 µg/mL
5 | CCN(CC)C(=O)C1CCCN(S(=O)(=O)c2cc(C(=O)Nc3ccc(C#N)cc3C(=O)O)sc2C)C1 (centres unmarked) | 64 µg/mL (≈ 120 µM)
6 | O=C(Nc1ccc(Br)cc1C(=O)O)c1cnc(CC[C@H](O)CO)cn1 | 64 µg/mL (≈ 156 µM)
7 | COCCOCCCSc1ccc(C(=O)Nc2ccc(Cl)cc2C(=O)O)cn1 | 4 µg/mL (≈ 9.41 µM)
8 | O=C(Nc1ccc(Br)cc1C(=O)O)c1ccc2c(c1)OCO2 | 16 µg/mL (≈ 43.9 µM)
9 | N#Cc1ccc(NC(=O)c2ccc(N3CCCCC3)nc2)c(C(=O)O)c1 | 8 µg/mL (≈ 22.8 µM)
10 | Cn1c(C(=O)Nc2ccc(C#N)cc2C(=O)O)cc2cccc(O/C=C3/COC(C)(C)O3)c21 | 0.25 µg/mL (≈ 0.559 µM)
11 | CSc1ncccc1C(=O)Nc1ccc(Br)cc1C(=O)O | > 128 µg/mL
12 | CCCCSc1cnc(C(=O)Nc2ccc(Br)cc2C(=O)O)cn1 | 1 µg/mL (≈ 2.44 µM)
13 | Cc1c(S(=O)(=O)NCCCn2ccnc2)csc1C(=O)Nc1ccc(Br)cc1C(=O)O | > 128 µg/mL
14 | N#Cc1ccc(NC(=O)c2cncc(C#CC3C=NNC3)c2)c(C(=O)O)c1 (centres unmarked) | 4 µg/mL (≈ 11.1 µM)
15 | Cc1sc(C(=O)Nc2ccc(C#N)cc2C(=O)O)cc1S(=O)(=O)N1CCN(c2ccc(F)cc2)CC1 | 16 µg/mL (≈ 30.3 µM)
16 | N#Cc1ccc(NC(=O)c2ccc(SC3CCCC3)nc2)c(C(=O)O)c1 | 0.5 µg/mL (≈ 1.36 µM)
17 | Cc1sc(C(=O)Nc2ccc(Br)cc2C(=O)O)cc1S(=O)(=O)NCc1ccc(N(C)C)cc1 | 16 µg/mL (≈ 29 µM)
18 | COCC(OC)C(Cc1cnc(C(=O)Nc2ccc(Br)cc2C(=O)O)cn1)OC (centres unmarked) | > 128 µg/mL
19 | Cc1sc(C(=O)Nc2ccc(C#N)cc2C(=O)O)cc1S(=O)(=O)N(C)C1CCCCC1 | 8 µg/mL (≈ 17.3 µM)
20 | CCC(C)Sc1cnc(C(=O)Nc2ccc(Cl)cc2C(=O)O)cn1 (centres unmarked) | 0.25 µg/mL (≈ 0.683 µM)
21 | CSc1ccc(C(=O)Nc2ccc(C#N)cc2C(=O)O)cn1.Cl | 4 µg/mL
22 | N#Cc1ccc(NC(=O)c2ccc(SCc3ccncc3)nn2)c(C(=O)O)c1 | 0.25 µg/mL (≈ 0.639 µM)
23 | Cn1c(C(=O)Nc2ccc(C#N)cc2C(=O)O)cc2ccc(NC(=O)N3CCOCC3)cc21 | 4 µg/mL (≈ 8.94 µM)

Now from value to molecule:

Row | MIC | SMILES
24 | 1 µg/mL (≈ 3.25 µM) | N#Cc1ccc(NC(=O)c2nc3ccccc3o2)c(C(=O)O)c1
25 | 8 µg/mL (≈ 22.9 µM) | N#Cc1ccc(NC(=O)c2nc(-c3ccccc3)cs2)c(C(=O)O)c1
26 | 8 µg/mL (≈ 25.2 µM) | N#Cc1ccc(NC(=O)c2ccc3ccccc3n2)c(C(=O)O)c1
27 | 0.5 µg/mL (≈ 1.38 µM) | COc1cccc(-c2cnc(C(=O)Nc3ccc(C#N)cc3C(=O)O)o2)c1
28 | 0.5 µg/mL (≈ 1.55 µM) | N#Cc1ccc(NC(=O)c2noc3cc(N)ccc23)c(C(=O)O)c1
29 | 128 µg/mL (≈ 390 µM) | N#Cc1ccc(NC(=O)c2cc(CNC(=N)N)on2)c(C(=O)O)c1
30 | 8 µg/mL (≈ 27.9 µM) | N#Cc1ccc(NC(=O)c2cc(CO)on2)c(C(=O)O)c1
31 | 1 µg/mL (≈ 2.41 µM) | Cc1noc(C)c1-c1ccc2cc(C(=O)Nc3ccc(C#N)cc3C(=O)O)n(C)c2c1
32 | 0.5 µg/mL (≈ 1.03 µM) | C[C@@H](CBr)COc1ccccc1-c1cc(C(=O)Nc2ccc(C#N)cc2C(=O)O)no1
33 | 4 µg/mL (≈ 12.6 µM) | CC1=C(C(=O)Nc2ccc(C#N)cc2C(=O)O)Cc2ccccc21
34 | 0.25 µg/mL (≈ 0.773 µM) | N#Cc1ccc(NC(=O)c2nc3ccccc3s2)c(C(=O)O)c1
35 | 2 µg/mL (≈ 4 µM) | Cc1sc(C(=O)Nc2ccc(C#N)cc2C(=O)O)cc1S(=O)(=O)N(C)CC(O)c1ccccc1 (centres unmarked)
36 | 4 µg/mL (≈ 8.27 µM) | Cc1sc(C(=O)Nc2ccc(C#N)cc2C(=O)O)cc1S(=O)(=O)N(C)CCc1ccccc1
37 | 0.25 µg/mL (≈ 0.539 µM) | N#Cc1ccc(NC(=O)c2cc3cccc(NC(=O)c4cc5ccccc5[nH]4)c3[nH]2)c(C(=O)O)c1
38 | 0.125 µg/mL (≈ 0.335 µM) | COc1ccccc1-c1cc(C(=O)Nc2ccc(Cl)cc2C(=O)O)no1
39 | 0.125 µg/mL (≈ 0.326 µM) | N#Cc1ccc(NC(=O)c2noc3ccc(-c4ccccc4)cc23)c(C(=O)O)c1
40 | 0.125 µg/mL (≈ 0.358 µM) | N#Cc1ccc(NC(=O)c2cc(-c3ccccc3O)on2)c(C(=O)O)c1
41 | 128 µg/mL (≈ 232 µM) | N#Cc1ccc(NC(=O)COc2ccccc2-c2cc(C(=O)Nc3ccc(C#N)cc3C(=O)O)no2)c(C(=O)O)c1

From patent US20040110802A1, “Antibacterial benzoic acid derivatives” (priority 2002, published 2004)
